Experimental data as given in PubChem BioAssay (NCI).
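Growth conditions: 96-well plates. Treatment: test compound, 48 hours, 5 concentrations. Analysis: linear interpolation between bracketing concentrations; unreached endpoints set to highest concentration. TGI denotes the concentration required for complete inhibition of growth.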

Experiments:
Assay in all cases: inhibition of tumour cell growth, NCI panel, 48 h
SK-MEL-2 melanoma = test system: SK-MEL-2 melanoma
T-47D breast = test system: T-47D breast
MALME-3M melanoma = test system: MALME-3M melanoma
SF-539 CNS = test system: SF-539 CNS
SNB-19 CNS = test system: SNB-19 CNS
BT-549 breast = test system: BT-549 breast
OVCAR-3 ovarian = test system: OVCAR-3 ovarian
SF-268 CNS = test system: SF-268 CNS
MDA-MB-435 = test system: MDA-MB-435
DU-145 prostate = test system: DU-145 prostate
OVCAR-8 ovarian = test system: OVCAR-8 ovarian
NCI-H23 lung = test system: NCI-H23 lung
A549 NSCLC = test system: A549 NSCLC
SF-295 CNS = test system: SF-295 CNS
HS 578T breast = test system: HS 578T breast
NCI-H226 lung = test system: NCI-H226 lung
HCT-116 colon = test system: HCT-116 colon
CAKI-1 renal = test system: CAKI-1 renal
HOP-92 NSCLC = test system: HOP-92 NSCLC
786-0 renal = test system: 786-0 renal
HT29 colon = test system: HT29 colon
SK-OV-3 ovarian = test system: SK-OV-3 ovarian
HOP-62 NSCLC = test system: HOP-62 NSCLC
NCI-H460 lung = test system: NCI-H460 lung
NCI-H522 lung = test system: NCI-H522 lung
M14 melanoma = test system: M14 melanoma
SK-MEL-28 melanoma = test system: SK-MEL-28 melanoma
HCC-2998 colon = test system: HCC-2998 colon
OVCAR-5 ovarian = test system: OVCAR-5 ovarian
EKVX NSCLC = test system: EKVX NSCLC
UACC-257 melanoma = test system: UACC-257 melanoma
ACHN renal = test system: ACHN renal
KM12 colon = test system: KM12 colon
LOX IMVI melanoma = test system: LOX IMVI melanoma
IGROV1 ovarian = test system: IGROV1 ovarian
MCF7 breast = test system: MCF7 breast
UO-31 renal = test system: UO-31 renal
UACC-62 melanoma = test system: UACC-62 melanoma
SN12C renal = test system: SN12C renal
HCT-15 colon = test system: HCT-15 colon
PC-3 prostate = test system: PC-3 prostate
OVCAR-4 ovarian = test system: OVCAR-4 ovarian
NCI/ADR-RES ovarian = test system: NCI/ADR-RES ovarian
MDA-MB-231 breast = test system: MDA-MB-231 breast
SK-MEL-5 melanoma = test system: SK-MEL-5 melanoma
RXF 393 renal = test system: RXF 393 renal
A498 renal = test system: A498 renal
TK-10 renal = test system: TK-10 renal
COLO 205 colon = test system: COLO 205 colon
U251 CNS = test system: U251 CNS

Which results are given for `CN1CCN(C(=O)CCC(=O)Nc2cc3c(c4ccccc24)-c2ccc4ccccc4c2C3)CC1`?
TGI (SK-MEL-2 melanoma): 3.65 µM; TGI (T-47D breast): 3.57 µM; TGI (MALME-3M melanoma): 3.71 µM; TGI (SF-539 CNS): 3.13 µM; TGI (SNB-19 CNS): 3.93 µM; TGI (BT-549 breast): 2.84 µM; TGI (OVCAR-3 ovarian): 3.22 µM; TGI (SF-268 CNS): 3.57 µM; TGI (MDA-MB-435): 3.02 µM; TGI (DU-145 prostate): 3.52 µM; TGI (OVCAR-8 ovarian): 4.38 µM; TGI (NCI-H23 lung): 3.47 µM; TGI (A549 NSCLC): 3.96 µM; TGI (SF-295 CNS): 3.4 µM; TGI (HS 578T breast): 5.81 µM; TGI (NCI-H226 lung): 3.93 µM; TGI (HCT-116 colon): 2.95 µM; TGI (CAKI-1 renal): 3.16 µM; TGI (HOP-92 NSCLC): 3.36 µM; TGI (786-0 renal): 3.13 µM; TGI (HT29 colon): 3.23 µM; TGI (SK-OV-3 ovarian): 3.09 µM; TGI (HOP-62 NSCLC): 3.15 µM; TGI (NCI-H460 lung): 3.72 µM; TGI (NCI-H522 lung): 3.2 µM; TGI (M14 melanoma): 2.97 µM; TGI (SK-MEL-28 melanoma): 3.26 µM; TGI (HCC-2998 colon): 2.7 µM; TGI (OVCAR-5 ovarian): 3.15 µM; TGI (EKVX NSCLC): 3.13 µM; TGI (UACC-257 melanoma): 3.24 µM; TGI (ACHN renal): 3.78 µM; TGI (KM12 colon): 3.2 µM; TGI (LOX IMVI melanoma): 4.04 µM; TGI (IGROV1 ovarian): 2.74 µM; TGI (MCF7 breast): 3.03 µM; TGI (UO-31 renal): 3.28 µM; TGI (UACC-62 melanoma): 3.32 µM; TGI (SN12C renal): 3.64 µM; TGI (HCT-15 colon): 3.68 µM; TGI (PC-3 prostate): 3.37 µM; TGI (OVCAR-4 ovarian): 3.08 µM; TGI (NCI/ADR-RES ovarian): 4.55 µM; TGI (MDA-MB-231 breast): 2.93 µM; TGI (SK-MEL-5 melanoma): 3 µM; TGI (RXF 393 renal): 3.45 µM; TGI (A498 renal): 27.6 µM; TGI (TK-10 renal): 3.27 µM; TGI (COLO 205 colon): 3 µM; TGI (U251 CNS): 4.11 µM
